This is an account of results in paper PMC6378654 (Journal of Medicinal Chemistry, 2019).

As a reminder, the IC50 is the midpoint of a concentration-inhibition curve.

One data set addresses T1, β2i (Homo sapiens, UniProt P40306).
T1 sequence (P40306 40-273): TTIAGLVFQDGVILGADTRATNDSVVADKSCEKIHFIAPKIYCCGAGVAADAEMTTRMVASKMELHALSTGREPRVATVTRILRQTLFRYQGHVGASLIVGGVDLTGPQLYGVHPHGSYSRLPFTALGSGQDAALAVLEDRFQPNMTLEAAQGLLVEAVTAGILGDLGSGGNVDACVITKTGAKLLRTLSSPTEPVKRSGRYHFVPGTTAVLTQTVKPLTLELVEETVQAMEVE
Briefly: ABPP assay with probe 97 in Raji cell lysates. In kind it is biochemical. The settings on record: for labeling of β2i by probe 97 after preincubation with inhibitor: LU-002i at 3 μM, LU-002c at high concentrations, Figure 4B.

The target in data set [1] is T2, human proteasome subunit β2c (Homo sapiens, UniProt Q99436).
T2 sequence (Q99436 44-277): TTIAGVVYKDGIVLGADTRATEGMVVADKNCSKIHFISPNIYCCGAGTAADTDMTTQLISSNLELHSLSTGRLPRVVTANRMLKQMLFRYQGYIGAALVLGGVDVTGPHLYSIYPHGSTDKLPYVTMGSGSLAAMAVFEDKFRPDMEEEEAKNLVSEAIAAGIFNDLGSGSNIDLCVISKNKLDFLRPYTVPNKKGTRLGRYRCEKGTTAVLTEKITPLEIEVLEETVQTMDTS
Briefly: Competitive ABPP in Raji cell lysates. Type of data set: biochemical. The settings on record: for IC50: read-out: Apparent IC50 β2c.

Data set [2] has as its target T3, human proteasome subunit β2i (Homo sapiens, UniProt P40306).
T3 sequence (P40306 40-273): T1 sequence (P40306 40-273)
Briefly: Competitive ABPP in Raji cell lysates. In kind it is biochemical. The note with it: LU-002i 3 μM, LU-002c 0.3 μM, LU-102 1 μM, Figure 4B.

The nature of data set [3]: Solubility in aqueous solutions. The note with it: stated in words. In kind it is physicochemical.
Data set [4] deals with human proteasome subunit β2c. Briefly: Competitive ABPP in Raji cell lysates. In kind it is biochemical.

Molecules are shown by their SMILES. Where two headings read alike, the source gives them in different places. A value given as a limit tells only on which side of the number the result lay.

For `CC(C)C[C@H](NC(=O)[C@H](Cc1ccccc1)N=[N+]=[N-])C(=O)N[C@@H](CC(C)C)C(=O)N[C@H](/C=C/S(C)(=O)=O)Cc1ccc(CN)cc1` [Compound 1, reference compound], the “labeling of β2i by probe 97 after preincubation with inhibitor” value at β2i is “completely abolished”. For `CC(C)C[C@H](NC(=O)[C@H](Cc1ccccc1)N=[N+]=[N-])C(=O)N[C@@H](C)C(=O)N[C@H](/C=C/S(C)(=O)=O)Cc1ccc(CN)cc1` [Compound 4], the “β2c labeling by the three-probe mixture after inhibitor treatment” value in data set [1] (Raji cell lysates, LU-002c 0.3 μM, LU-102 1 μM, Figure 4B) is given as “completely prevented”. The “β2i labeling by the three-probe mixture after inhibitor treatment” value in data set [2] is on record as “partially inhibited”. Further, on β2i, the “labeling of β2i by probe 97 after preincubation with inhibitor” value is recorded as “partially reduced”. On to `COc1ccc(C[C@H](NC(=O)[C@H](C)NC(=O)CN2CCOCC2)C(=O)N[C@@H](CC2CCCC3CCCCC32)C(=O)[C@@]2(C)CO2)cc1` (stereo partly shown) [Compound 5], for which the “solubility in aqueous solutions” value in data set [3] is reported as “poorly soluble”.

Take `CC(C)C[C@H](NC(=O)c1cnccn1)C(=O)N[C@@H](CC(C)C)C(=O)N[C@H](/C=C/S(C)(=O)=O)Cc1ccc(CN)cc1` [Compound 7]: in data set [1] (initial screening), the “decreased potency for β2c compared to LU-102” value is 23 fold. As to `COC[C@H](NC(=O)[C@H](CC(C)C)NC(=O)c1cnc(C)s1)C(=O)N[C@H](/C=C/S(C)(=O)=O)Cc1ccc(CN)cc1` [Compound 20], the “selectivity for β2c over β2i” value in data set [4] (Raji cell extracts, wider range of concentrations (Table 2)) is at least 27 fold; in data set [4] (initial screening (Table 1)) it was 14 fold. In the case of `Cc1ncc(C(=O)N[C@@H](CC2CCCCC2)C(=O)N[C@@H](CC2CCCCC2)C(=O)N[C@H](/C=C/S(C)(=O)=O)Cc2ccc(CN)cc2)s1` [Compound 36], the “selectivity for β2c over β2i” value in data set [4] (initial screening (Table 1)) is on record as 10.5 fold. Turning to `COc1ccc(C[C@H](NC(=O)[C@H](C)NC(=O)CN2CCOCC2)C(=O)N[C@@H](CCC2CCCCC2)C(=O)[C@@]2(C)CO2)cc1` [Compound 39, Morp-Ala-Tyr(Me)-HomoCha-EK], the 50% inhibitory concentration (IC50) in data set [1] (Raji cell lysates, wider range of final concentrations, Table 5) stood at 2.5 µM.

For the molecule `COc1ccc(C[C@H](NC(=O)[C@H](C)NC(=O)CN2CCOCC2)C(=O)N[C@@H](C[C@H]2CCCc3ccccc32)C(=O)[C@@]2(C)CO2)cc1` [Compound 68, Morp-Ala-Tyr(Me)-1-(R)-TetraNal-EK], the half-maximal inhibitory concentration (IC50) in data set [1] (Raji cell lysates, Table 6) is over 100 µM.

Regarding `COc1ccc(C[C@H](NC(=O)[C@H](C)NC(=O)CN2CCOCC2)C(=O)N[C@@H](C[C@@H]2CCCc3ccccc32)C(=O)[C@@]2(C)CO2)cc1` [Compound 71, Morp-Ala-Tyr(Me)-1-(S)-TetraNal-EK], in data set [1] (Raji cell lysates, Table 6), the IC50 was over 100 µM. Still for that read-out and setting: under `COc1ccc(C[C@H](NC(=O)[C@H](C)NC(=O)CN2CCOCC2)C(=O)N[C@@H](C[C@H]2CCCC3CCCCC32)C(=O)[C@@]2(C)CO2)cc1` (stereo partly shown) [Compound 74, Morp-Ala-Tyr(Me)-1-DecAla-EK] stands over 100 µM. As to `COc1ccc(C[C@H](NC(=O)[C@H](C)NC(=O)CN2CCOCC2)C(=O)N[C@@H](C[C@@H]2CCCC3CCCCC32)C(=O)[C@@]2(C)CO2)cc1` (stereo partly shown) [Compound 77, Morp-Ala-Tyr(Me)-1-DecAla-EK], the IC50 in data set [1] (Raji cell lysates, Table 6) stood at 28 µM.

For `COc1ccc(C[C@H](NC(=O)[C@H](C)NC(=O)CN2CCOCC2)C(=O)N[C@@H](C[C@H]2CCC[C@@H]3CCCC[C@@H]32)C(=O)[C@@]2(C)CO2)cc1` [Compound 86, Morp-Ala-Tyr(Me)-1-DecAla-EK], the IC50 in data set [1] (Raji cell lysates, Table 6) was over 100 µM. Regarding `CC1=CC(C)=N/C1=C(/CCCCc1cn(CCOc2ccc(C[C@H](NC(=O)[C@H](C)NC(=O)CN3CCOCC3)C(=O)N[C@@H](CC3CCCC4CCCCC43)C(=O)[C@@]3(C)CO3)cc2)nn1)c1c(C)cc(C)n1B(F)F` (stereo partly shown) [Compound 97, Morp-Ala-Tyr(O–C2H4-BODIPY(FL))-1-DecAla-EK], the “β2i labeling by ABP 97” value on β2i (final concentration of 3 μM, Figure 4A) was “selective”.
